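Briefly, cells in 96-well plates were exposed to five compound concentrations for 48 h, and endpoints were estimated by linear interpolation. Definition used: TGI = concentration required for complete inhibition of growth.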 Peptide text beside a SMILES is read from it. * marks the point of attachment. Boc = CC(C)(C)OC(=O)*; OBn = c1ccc(CO*)cc1
What was measured:
Assay in all cases: inhibition of tumour cell growth, NCI panel, 48 h
A549 NSCLC = tested on: A549 NSCLC
K-562 leukemia = tested on: K-562 leukemia
CCRF-CEM leukemia = tested on: CCRF-CEM leukemia
OVCAR-4 ovarian = tested on: OVCAR-4 ovarian
NCI-H522 lung = tested on: NCI-H522 lung
KM12 colon = tested on: KM12 colon
MDA-MB-231 breast = tested on: MDA-MB-231 breast
NCI-H226 lung = tested on: NCI-H226 lung
HOP-62 NSCLC = tested on: HOP-62 NSCLC
CAKI-1 renal = tested on: CAKI-1 renal
SN12C renal = tested on: SN12C renal
MALME-3M melanoma = tested on: MALME-3M melanoma
LOX IMVI melanoma = tested on: LOX IMVI melanoma
ACHN renal = tested on: ACHN renal

Compound | TGI (A549 NSCLC) | TGI (K-562 leukemia) | TGI (CCRF-CEM leukemia) | TGI (OVCAR-4 ovarian) | TGI (NCI-H522 lung) | TGI (KM12 colon) | TGI (MDA-MB-231 breast) | TGI (NCI-H226 lung) | TGI (HOP-62 NSCLC) | TGI (CAKI-1 renal) | TGI (SN12C renal) | TGI (MALME-3M melanoma) | TGI (LOX IMVI melanoma) | TGI (ACHN renal)
COc1cccc2c(Nc3ccc(S(=O)(=O)NC(C)=O)cc3)c3ccc([N+](=O)[O-])cc3nc12 | > 100 µM | > 84.7 µM | > 100 µM | > 100 µM | > 100 µM | > 35.3 µM | 56.6 µM | > 64.7 µM | > 100 µM | > 100 µM | > 100 µM | > 87 µM | > 100 µM | > 100 µM
Nc1cn(Cc2ccccc2)c2nc(/C=C3/C=CC=CC3=O)c(O)n12 | > 100 µM | > 100 µM | > 100 µM | > 100 µM | > 100 µM | > 100 µM | > 100 µM | > 100 µM | > 100 µM | > 100 µM | > 100 µM | > 100 µM | > 100 µM | > 100 µM
CC(NC(=O)CNC(=O)OC(C)(C)C)C(=O)NC(Cc1ccccc1)C(=O)OCc1ccccc1 (stereo not drawn) (Boc-Gly-Ala-Phe-OBn; configuration not given here) | > 100 µM | > 100 µM | > 100 µM | > 100 µM | > 100 µM | > 100 µM | > 100 µM | > 100 µM | – | > 100 µM | > 100 µM | > 100 µM | > 100 µM | > 100 µM
CCOC(=O)C(NC(=O)CC(C)C)(Nc1ccc(S(=O)(=O)Nc2nc(C)cc(C)n2)cc1)C(F)(F)F (stereo not drawn) | > 100 µM | > 100 µM | > 100 µM | > 100 µM | > 100 µM | > 100 µM | > 100 µM | > 100 µM | > 100 µM | > 100 µM | > 100 µM | > 100 µM | > 100 µM | > 100 µM
Cc1cc(NCCCCCCCCCC[n+]2c(C)cc(N)c3ccccc32)c2ccccc2n1 | 61.8 µM | 2.36 µM | 7.43 µM | > 100 µM | > 100 µM | 2.4 µM | 5.61 µM | > 100 µM | 30.1 µM | 30.7 µM | 5.85 µM | 18.5 µM | – | 10.1 µM
COc1ccc(C(c2c[nH]c3ccc(Br)cc23)c2c[nH]c3ccc(Br)cc23)cc1 | 1.22 µM | 0.423 µM | 0.436 µM | 1.25 µM | 0.397 µM | 0.468 µM | 0.705 µM | 1.7 µM | 1.22 µM | 1.64 µM | – | 2.23 µM | 0.314 µM | 0.845 µM
O=C(CCc1ccc(O)cc1)NCCc1cccc(OCc2ccccc2)c1 | > 100 µM | 65.9 µM | 20.7 µM | > 100 µM | 99.3 µM | 83 µM | > 100 µM | 97.8 µM | > 100 µM | > 100 µM | > 100 µM | 79.6 µM | 30.4 µM | > 100 µM
Fc1ccccc1-c1nn2c(C34CC5CC(CC(C5)C3)C4)nnc2s1 | > 100 µM | > 100 µM | > 100 µM | > 100 µM | > 100 µM | – | > 100 µM | > 100 µM | > 100 µM | > 100 µM | > 100 µM | > 100 µM | > 100 µM | > 100 µM

From PubChem BioAssay (NCI)
